These results are taken from patent US20200230247A1, “COMBINATION THERAPIES COMPRISING TARGETED THERAPEUTICS” (TARVEDA THERAPEUTICS, INC., priority 2017, published 2020).

The test system of this experiment is NCI-H69 (small cell lung cancer) tumors. In words: Antitumor efficacy in mice bearing NCI-H69 tumors. In kind it is in vivo. As to conditions: Conjugate 1 12.5 mpk once per week IV, Talazoparib 0.33 mpk PO daily 4 days on/three days off, combo: Talazoparib starting 24 hrs post Conjugate 1 dose, tumor volumes measured up to 16 days after treatment. The method, then: Mice bearing NCI-H69 (small cell lung cancer) tumors were treated with the following.
1). Vehicle controls; 2). 12.5 mpk (mg per kilogram) of Conjugate 1 once per week via intravenous administration (IV); 3). 0.33 mpk Talazoparib daily for 4 days on/three days off via oral administration (PO); 4). 12.5 mpk Conjugate 1 once per week via IV, and 0.33 mpk Talazoparib daily for 4 days on/three days off starting 24 hrs post Conjugate 1 dose.
Tumor volumes were measured 3 days, 8 days, 10 days, 13 days and 16 days after treatment.

As to `Cn1ncnc1[C@H]1c2n[nH]c(=O)c3cc(F)cc(c23)N[C@@H]1c1ccc(F)cc1` [Talazoparib, talazoparib], the “Tumor Growth Inhibition (TGI %)” value came to 15.66%. Consider `CCc1c2c(nc3ccc(OC(=O)N4CCC(CCn5ccc6cc(-n7c(O)nnc7-c7cc(C(C)C)c(O)cc7O)ccc65)CC4)cc13)-c1cc3c(c(=O)n1C2)COC(=O)[C@]3(O)CC` [Conjugate 1, (S)-4,11-diethyl-4-hydroxy-3,14-dioxo-3,4,12,14-tetrahydro-1H-pyrano[3′,4′:6,7]indolizino[1,2-b]quinolin-9-yl 4-(2-(5-(3-(2,4-dihydroxy-5-isopropylphenyl)-5-hydroxy-4H-1,2,4-triazol-4-yl)-1H-indol-1-yl)ethyl)piperidine-1-carboxylate], for which the “Tumor Growth Inhibition (TGI %)” value came to 50.67%.
